The experiment concerns the target human plasma kallikrein (Homo sapiens (Human), UniProt P03952). The note with it: human plasma kallikrein 25 pM, substrate 0.5 uM, 1 hour pre-incubation at room temperature, read at t=60 min.
Chain of human plasma kallikrein (P03952 whole entry, looked up): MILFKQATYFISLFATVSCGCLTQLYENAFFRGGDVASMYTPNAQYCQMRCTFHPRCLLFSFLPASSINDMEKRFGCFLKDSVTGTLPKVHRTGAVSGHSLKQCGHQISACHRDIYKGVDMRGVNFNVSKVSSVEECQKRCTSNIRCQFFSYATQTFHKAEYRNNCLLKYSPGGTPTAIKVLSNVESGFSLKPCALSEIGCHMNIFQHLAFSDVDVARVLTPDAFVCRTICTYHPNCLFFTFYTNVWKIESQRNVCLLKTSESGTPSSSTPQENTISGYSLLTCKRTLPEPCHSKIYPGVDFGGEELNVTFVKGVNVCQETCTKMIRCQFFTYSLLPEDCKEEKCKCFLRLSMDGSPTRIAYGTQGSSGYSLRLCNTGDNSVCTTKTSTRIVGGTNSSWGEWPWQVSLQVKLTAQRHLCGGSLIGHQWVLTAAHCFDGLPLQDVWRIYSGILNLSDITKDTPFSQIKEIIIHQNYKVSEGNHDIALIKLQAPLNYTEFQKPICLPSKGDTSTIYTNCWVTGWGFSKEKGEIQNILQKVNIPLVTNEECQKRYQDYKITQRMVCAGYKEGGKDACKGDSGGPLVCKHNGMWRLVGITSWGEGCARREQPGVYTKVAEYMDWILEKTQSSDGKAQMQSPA
Chain of human plasma kallikrein (P03952 whole entry partner, looked up): as the sequence (P03952 whole entry, looked up) above
In the case of `Cc1cc(N)nc(C)c1CNC(=O)c1cnn(CC2CCCCC2)c1` [Example 88, N-((6-amino-2,4-dimethylpyridin-3-yl)methyl)-1-(cyclohexylmethyl)-1H-pyrazole-4-carboxamide], the IC50 – broadly, the concentration needed to halve the response being measured – came to 1800 nM.
For `Cc1cc(N)nc(C)c1CNC(=O)c1cnn(Cc2sc(-c3ccccc3)nc2C)c1` [Example 26, N-((6-amino-2,4-dimethylpyridin-3-yl)methyl)-1-((4-methyl-2-phenylthiazol-5-yl)methyl)-1H-pyrazole-4-carboxamide] the value was 19 nM; for `Cc1cc(N)nc(C)c1CNC(=O)c1ncn(Cc2cccc(N3CCCC3)c2)n1` [Example 68, N-((6-amino-2,4-dimethylpyridin-3-yl)methyl)-1-(3-(pyrrolidin-1-yl)benzyl)-1H-1,2,4-triazole-3-carboxamide], 34 nM.
`Cc1cc(N)nc(C)c1CNC(=O)c1cnn(Cc2ccncc2)c1` [Example 18, N-((6-amino-2,4-dimethylpyridin-3-yl)methyl)-1-(pyridin-4-ylmethyl)-1H-pyrazole-4-carboxamide] returned a half-maximal inhibitory concentration (IC50) of 1100 nM.
With `COc1ccc(S(=O)(=O)n2ccc(C(=O)NCc3c(C)cc(N)nc3C)c2)cc1` [Example 12, 1-(4-Methoxy-benzenesulfonyl)-1H-pyrrole-3-carboxylic acid (6-amino-2,4-dimethyl-pyridin-3-ylmethyl)-amide] the figure was 1370 nM; with `Cc1nc(N)cc(OC2CCCCC2)c1CNC(=O)c1cnn(Cc2ccccc2)c1` [Example 15, N-((6-amino-4-(cyclohexyloxy)-2-methylpyridin-3-yl)methyl)-1-benzyl-1H-pyrazole-4-carboxamide], 230 nM; with `Cc1cc(C)n(Cc2ccc(Cn3cc(C(=O)NCc4c(C)cc(N)nc4C)nn3)cc2)n1` [Example 148, N-((6-amino-2,4-dimethylpyridin-3-yl)methyl)-1-(4-((3,5-dimethyl-1H-pyrazol-1-yl)methyl)benzyl)-1H-1,2,3-triazole-4-carboxamide], 0.03 nM.
With `Cc1cc(N)nc(C)c1CNC(=O)c1ncn(Cc2ccc3ccccc3c2)n1` [Example 64, N-((6-amino-2,4-dimethylpyridin-3-yl)methyl)-1-(naphthalen-2-ylmethyl)-1H-1,2,4-triazole-3-carboxamide] the figure was 14 nM; with `Cc1cc(N)nc(C)c1CNC(=O)c1cnn(Cc2cc3ccccc3o2)n1` [Example 44, N-((6-amino-2,4-dimethylpyridin-3-yl)methyl)-2-(benzofuran-2-ylmethyl)-2H-1,2,3-triazole-4-carboxamide], 215 nM.
For `Cc1cc(N)nc(C)c1CNC(=O)c1cnn(Cc2cccc(F)c2)c1` [Example 84, N-((6-amino-2,4-dimethylpyridin-3-yl)methyl)-1-(3-fluorobenzyl)-1H-pyrazole-4-carboxamide] the value was 498 nM; for `Cc1cn2cc(Cn3cc(C(=O)NCc4c(C)cc(N)nc4C)cn3)ccc2n1` [Example 169, N-((6-amino-2,4-dimethylpyridin-3-yl)methyl)-1-((2-methylimidazo[1,2-a]pyridin-6-yl)methyl)-1H-pyrazole-4-carboxamide], 3 nM; for `Cc1cc(N)nc(C)c1CNC(=O)c1cnn(Cc2cccc(C(N)=O)c2)c1` [Example 102, N-((6-amino-2,4-dimethylpyridin-3-yl)methyl)-1-(3-carbamoylbenzyl)-1H-pyrazole-4-carboxamide], 4000 nM.
Compound `Cc1cc(N)nc(C)c1CNC(=O)c1ncn(Cc2ccccc2)n1` [Example 56, N-((6-amino-2,4-dimethylpyridin-3-yl)methyl)-1-benzyl-1H-1,2,4-triazole-3-carboxamide] showed an IC50 of 4400 nM.
With `Cc1cc(N)nc(C)c1CNC(=O)c1nnc(Cc2ccccc2)o1` [Example 4, N-((6-amino-2,4-dimethylpyridin-3-yl)methyl)-5-benzyl-1,3,4-oxadiazole-2-carboxamide] the figure was 7600 nM; with `Cc1cc(N)nc(C)c1CNC(=O)c1coc(Cc2ccccc2)n1` [Example 58, N-((6-amino-2,4-dimethylpyridin-3-yl)methyl)-2-benzyloxazole-4-carboxamide], 3800 nM.
`Cc1ccc2cc(Cn3cc(C(=O)NCc4c(C)cc(N)nc4C)cn3)ccc2n1` [Example 154, N-((6-amino-2,4-dimethylpyridin-3-yl)methyl)-1-((2-methylquinolin-6-yl)methyl)-1H-pyrazole-4-carboxamide] had a half-maximal inhibitory concentration (IC50) of 2 nM.
As for `Cc1cc(N)nc(C)c1CNC(=O)c1cc(S(=O)(=O)N2CCOCC2)c[nH]1` [Example 52, N-((6-amino-2,4-dimethylpyridin-3-yl)methyl)-4-(morpholinosulfonyl)-1H-pyrrole-2-carboxamide], the IC50 is 5700 nM.
As for `Cc1cc(N)nc(C)c1CNC(=O)c1cnn(Cc2cccnc2)c1` [Example 98, N-((6-amino-2,4-dimethylpyridin-3-yl)methyl)-1-(pyridin-3-ylmethyl)-1H-pyrazole-4-carboxamide], the IC50 was 3800 nM. This IC50 lies about 1.5-fold lower than the previous one.
With `Cc1cccc(Cn2cc(C(=O)NCc3c(C)cc(N)nc3C)cn2)n1` [Example 86, N-((6-amino-2,4-dimethylpyridin-3-yl)methyl)-1-((6-methylpyridin-2-yl)methyl)-1H-pyrazole-4-carboxamide] the figure was 7500 nM; with `Cc1cc(N)nc(C)c1CNC(=O)c1cn(Cc2cccc(C#N)c2)nn1` [Example 54, N-((6-amino-2,4-dimethylpyridin-3-yl)methyl)-1-(3-cyanobenzyl)-1H-1,2,3-triazole-4-carboxamide], 1800 nM; with `Cc1cc(N)nc(C)c1CNC(=O)c1cn(Cc2ccc(-n3cccn3)cc2)nn1` [Example 41, 1-(4-(1H-pyrazol-1-yl)benzyl)-N-((6-amino-2,4-dimethylpyridin-3-yl)methyl]-1H-1,2,3-triazole-4-carboxamide], 108 nM.
The compound `Cc1ccc2cc(Cn3cc(C(=O)NCc4ccc(N)nc4C)cn3)ccc2n1` [Example 159, N-((6-amino-2-methylpyridin-3-yl)methyl)-1-((2-methylquinolin-6-yl)methyl)-1H-pyrazole-4-carboxamide] displayed an IC50 of 7 nM. This IC50 lies about 15-fold lower than the previous one.
With `Cc1cc(N)nc(C)c1CNC(=O)c1cnn(Cc2coc(-c3ccccc3)n2)c1` [Example 32, N-((6-amino-2,4-dimethylpyridin-3-yl)methyl)-1-((2-phenyloxazol-4-yl)methyl)-1H-pyrazole-4-carboxamide] the figure was 41 nM; with `Cc1cc(N)nc(C)c1CNC(=O)c1cnn(Cc2ccc(C(=O)Nc3ccn(C)n3)cc2)c1` [Example 122, N-((6-amino-2,4-dimethylpyridin-3-yl)methyl)-1-(4-(1-methyl-1H-pyrazol-3-ylcarbamoyl)benzyl)-1H-pyrazole-4-carboxamide], 752 nM.
With `Cc1cc(N)nc(C)c1CNC(=O)c1ccn(S(=O)(=O)c2ccc(Cl)s2)c1` [Example 128, N-((6-amino-2,4-dimethylpyridin-3-yl)methyl)-1-(5-chlorothiophen-2-ylsulfonyl)-1H-pyrrole-3-carboxamide] the figure was 301 nM; with `Cc1cn(Cc2ccccc2)cc1C(=O)NCc1c(C)cc(N)nc1C` [Example 76, N-((6-amino-2,4-dimethylpyridin-3-yl)methyl)-1-benzyl-4-methyl-1H-pa role-3-carboxamide], 949 nM.
With `Cc1cc(N)nc(C)c1CNC(=O)c1cnn(Cc2ccc3[nH]cnc3c2)c1` [Example 33, 1-((1H-benzo[d]imidazol-5-yl)methyl)-N-((6-amino-2,4-dimethylpyridin-3-yl)methyl)-1H-pyrazole-4-carboxamide] the figure was 262 nM; with `Cc1cc(C)n(-c2ccc(S(=O)(=O)n3ccc(C(=O)NCc4c(C)cc(N)nc4C)c3)cc2)n1` [Example 133, N-((6-amino-2,4-dimethylpyridin-3-yl)methyl)-1-(4-(3,5-dimethyl-1H-pyrazol-1-yl)phenylsulfonyl)-1H-pyrrole-3-carboxamide], 196 nM; with `Cc1cc(N)nc(C)c1CNC(=O)c1cn(Cc2ccccc2)cn1` [Example 22, N-((6-amino-2,4-dimethylpyridin-3-yl)methyl)-1-benzyl-1H-imidazole-4-carboxamide], 1700 nM.
For `Cc1cc(N)nc(C)c1CNC(=O)c1cnn(Cc2ccc3ccccc3c2)c1` [Example 83, N-((6-amino-2,4-dimethylpyridin-3-yl)methyl)-1-(naphthalen-2-ylmethyl)-1H-pyrazole-4-carboxamide], the IC50 was 18 nM.
With `Cc1cc(N)nc(C)c1CNC(=O)c1cnn(Cc2ccc(CN3CCOCC3)cc2)c1` [Example 110, N-((6-amino-2,4-dimethylpyridin-3-yl)methyl)-1-(4-(morpholinomethyl)benzyl)-1H-pyrazole-4-carboxamide] the figure was 249 nM.
As to `Cc1noc(-c2ccc(Cn3cc(C(=O)NCc4c(C)cc(N)nc4C)cn3)cc2)n1` [Example 91, N-((6-amino-2,4-dimethylpyridin-3-yl)methyl)-1-(4-(3-methyl-1,2,4-oxadiazol-5-yl)benzyl)-1H-pyrazole-4-carboxamide], inhibition was half-maximal at 133 nM (IC50).
Take `Cc1cc(N)nc(C)c1CNC(=O)c1cnn(Cc2ccc3c(c2)N(C)C(=O)CO3)c1` [Example 151, N-((6-Amino-2,4-dimethylpyridin-3-yl)methyl)-1-((4-methyl-3-oxo-3,4-dihydro-2H-benzo[b][1,4]oxazin-6-yl)methyl)-1H-pyrazole-4-carboxamide]: the IC50 worked out at 13 nM.
As for `Cc1cc(N)nc(C)c1CNC(=O)c1n[nH]c(Cc2ccccc2)n1` [Example 113, N-((6-amino-2,4-dimethylpyridin-3-yl)methyl)-5-benzyl-1H-1,2,4-triazole-3-carboxamide], the midpoint of inhibition, the IC50, lay at 5800 nM. This IC50 is about 450-fold higher than that of the compound before.
With `Cc1nc(N)ccc1CNC(=O)c1cnn(Cc2cc(C(F)(F)F)c3cc(F)ccc3n2)c1` [Example 160, N-((6-amino-2-methylpyridin-3-yl)methyl)-1-((6-fluoro-4-(trifluoromethyl)quinolin-2-yl)methyl)-1H-pyrazole-4-carboxamide] the figure was 20 nM.

The values are drawn from patent US9290485B2, “N-((6-amino-pyridin-3-yl)methyl)-heteroaryl-carboxamides” (NOVARTIS AG, priority 2010, dated 2016).
